Experimental data taken from patent publication US4497742A, “Isomerization of β-lactam compounds” (Takeda Chemical Industries, Ltd., priority 1981, dated 1985).
Counter-ions that a name gives are not always drawn. Like-named read-outs stand apart in the source and are kept apart here.

Columns and labels:
[1] = test system: Escherichia coli NIHJ J2C; assay: Antimicrobial spectrum (MIC), Escherichia coli NIHJ J2C; assay type: cell-based; conditions: NIHJJ2C
[2] = test system: Proteus vulgaris IFO 3988; assay: Antimicrobial spectrum (MIC), Proteus vulgaris IFO 3988; assay type: cell-based; conditions: IFO3988
[3] = test system: Salmonella typhimurium IFO 12529; assay: Antimicrobial spectrum (MIC), Salmonella typhimurium IFO 12529; assay type: cell-based; conditions: Salmonella enterica
[4] = test system: Staphylococcus aureus FDA 209P; assay: Antimicrobial spectrum (MIC), Staphylococcus aureus FDA 209P; assay type: cell-based; conditions: FDA209P
[5] = biological target: T1, beta-Lactamase (Staphylococcus aureus, UniProt P00807); assay: beta-Lactamase-inhibitory activity, producing strain Staphylococcus aureus 1840; assay type: biochemical; conditions: read-out: beta-Lactamase-inhibitory activity [1D50] (converted)
T1 construct: endogenous in cells; host or cells: Staphylococcus aureus 1840 (producing strain)

[6] = test system: beta-Lactamase; assay: beta-Lactamase-inhibitory activity, producing strain Escherichia coli TN 713; assay type: biochemical
[7] = biological target: T2, beta-Lactamase (Enterobacter cloacae, UniProt P05364); assay: beta-Lactamase-inhibitory activity, producing strain Enterobacter cloacae TN 1282; assay type: biochemical; conditions: read-out: beta-Lactamase-inhibitory activity [1D50] (converted)
T2 construct: endogenous in cells; host or cells: Enterobacter cloacae TN 1282 (producing strain)

[8] = biological target: beta-Lactamase; assay: beta-Lactamase-inhibitory activity, producing strain Proteus vulgaris GN 4413; assay type: biochemical
[9] = Proteus vulgaris IFO 3988, read-out: MIC

T1 sequence (P00807 25-281): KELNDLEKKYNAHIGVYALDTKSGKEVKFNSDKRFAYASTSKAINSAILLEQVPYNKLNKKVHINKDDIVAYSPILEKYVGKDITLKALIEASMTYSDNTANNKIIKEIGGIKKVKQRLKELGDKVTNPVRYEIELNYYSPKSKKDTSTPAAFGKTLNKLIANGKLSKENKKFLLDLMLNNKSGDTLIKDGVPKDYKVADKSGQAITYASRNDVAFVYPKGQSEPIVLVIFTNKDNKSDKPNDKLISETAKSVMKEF
T2 sequence (P05364 21-381): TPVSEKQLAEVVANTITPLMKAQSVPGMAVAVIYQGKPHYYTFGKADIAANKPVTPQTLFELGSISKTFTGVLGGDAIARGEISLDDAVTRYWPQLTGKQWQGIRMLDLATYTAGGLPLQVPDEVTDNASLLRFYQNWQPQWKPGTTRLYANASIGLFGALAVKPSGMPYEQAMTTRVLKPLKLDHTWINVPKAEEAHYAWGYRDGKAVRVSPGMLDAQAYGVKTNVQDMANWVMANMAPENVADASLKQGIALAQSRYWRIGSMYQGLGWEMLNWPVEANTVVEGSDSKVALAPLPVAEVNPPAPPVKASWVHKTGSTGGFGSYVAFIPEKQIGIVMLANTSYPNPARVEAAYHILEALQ

| SMILES | MIC [1] | MIC [2, 9] | MIC [3] | MIC [4] | IC50 [5] | beta-Lactamase-inhibitory activity [1D50] [6] | IC50 [7] | beta-Lactamase-inhibitory activity [1D50] [8] | MIC ([2]; Proteus vulgaris) |
| --- | --- | --- | --- | --- | --- | --- | --- | --- | --- |
| CC(=O)N/C=C\SC1=C(C(=O)O)N2C(=O)[C@@H](C(C)(C)OS(=O)(=O)O)[C@H]2C1 [Ih, [5R, 6R]-3-[(Z)-2-acetamidoethenyl-thio]-6-[1-hydroxysulfonyloxy-1-methyl-ethyl]-7-oxo-1-azabicyclo(3,2,0)-hept-2-ene-2-carboxylic acid disodium salt] | 40 µg/mL | < 40 µg/mL | 20 µg/mL | 2.5 µg/mL | 2460 nM | 0.017 µg/mL | 7.87 nM | 0.0038 µg/mL | – |
| CC(=O)N/C=C\SC1=C(C(=O)[O-])N2C(=O)[C@@H](C(C)(C)O)[C@H]2C1.[Na+] [Ig, sodium [5R, 6R]-3-[(Z)-2-acetamidoethenyl-thio]-6-[1-hydroxy-1-methyl-ethyl]-7-oxo-1-azabicyclo(3,2,0)-hept-2-ene-2-carboxylate] | 2.5 µg/mL | – | 2.5 µg/mL | 0.625 µg/mL | – | 0.010 µg/mL | 86.1 nM | 0.017 µg/mL | 5 µg/mL |
| CC(=O)N/C=C\[S@@+]([O-])C1=C(C(=O)[O-])N2C(=O)[C@@H](C(C)(C)O)[C@H]2C1.[Na+] [Ia, sodium [5R, 6R]-3-[(Z)-2-acetamidoethenyl-(R)-sulfinyl]-6-[1-hydroxy-1-methylethyl]-7-oxo-1-azabicyclo(3,2,0)-hept-2-ene-2-carboxylate] | – | – | – | 0.39 µg/mL | 151 nM | 0.0016 µg/mL | 13.7 nM | 0.00105 µg/mL | – |
| CC(=O)N/C=C\[S@@+]([O-])C1=C(C(=O)O)N2C(=O)[C@@H](C(C)(C)OS(=O)(=O)O)[C@H]2C1 [Ib, [5R, 6R]-3-[(Z)-2-acetamidoethenyl-(R)-sulfinyl]-6-(1-hydroxysulfonyloxy-1-methylethyl)-7-oxo-1-azabicyclo (3,2,0)-hept-2-ene-2-carboxylic acid disodium salt] | 20 µg/mL | 40 µg/mL | 20 µg/mL | 2.5 µg/mL | 568 nM | 0.0001175 µg/mL | 36 nM | 0.00055 µg/mL | – |
